From PubChem BioAssay (NCI)
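Cultured in 96-well plates, cells were exposed to test compound for 48 hours across five concentrations. At the GI50, growth is halved. TGI marks complete inhibition of growth.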

Legend:
Assay in all cases: NCI anticancer screen, dose series, 48 h
NCI-H460 lung = test system: NCI-H460 lung
NCI-H23 lung = test system: NCI-H23 lung
MOLT-4 leukemia = test system: MOLT-4 leukemia
IGROV1 ovarian = test system: IGROV1 ovarian
HT29 colon = test system: HT29 colon
OVCAR-8 ovarian = test system: OVCAR-8 ovarian
NCI-H226 lung = test system: NCI-H226 lung
ACHN renal = test system: ACHN renal
HOP-92 NSCLC = test system: HOP-92 NSCLC
U251 CNS = test system: U251 CNS

SMILES | TGI (NCI-H460 lung) [µM] | TGI (NCI-H23 lung) [µM] | TGI (MOLT-4 leukemia) [µM] | TGI (IGROV1 ovarian) [µM] | TGI (HT29 colon) [µM] | TGI (OVCAR-8 ovarian) [µM] | TGI (NCI-H226 lung) [µM] | TGI (ACHN renal) [µM] | TGI (HOP-92 NSCLC) [µM] | TGI (U251 CNS) [µM] | GI50 (NCI-H460 lung) [nM] | GI50 (NCI-H23 lung) [nM] | GI50 (MOLT-4 leukemia) [nM] | GI50 (IGROV1 ovarian) [nM] | GI50 (HT29 colon) [nM] | GI50 (OVCAR-8 ovarian) [nM] | GI50 (NCI-H226 lung) [nM] | GI50 (ACHN renal) [nM] | GI50 (HOP-92 NSCLC) [nM] | GI50 (U251 CNS) [nM]
S=P(C1CCCCC1)(C1CCCCC1)C(c1cccnc1)N1CCCC1 (stereo not drawn) | 50.7 | 34.6 | 42.7 | 33.8 | > 100 | 51.7 | 38 | 34.7 | 42.7 | 46.6 | – | – | – | – | – | – | – | – | – | –
C[C@@]1([C@H](OC(=O)c2cccc3ccccc23)C(N)=O)CO1 | > 30.1 | 5.65 | > 100 | 3.75 | > 24 | 22.7 | 5.9 | 2.2 | 17.3 | 7.89 | 5500 | 1230 | 187 | 779 | 1050 | 594 | 1460 | 396 | 2810 | 997
COc1ccc(/C=C(/C(=O)N2CCN(c3ccc(C)cc3)CC2)c2cc(OC)c(OC)c(OC)c2)cc1N | > 44 | > 100 | > 100 | > 100 | > 39.2 | > 100 | > 100 | > 100 | > 100 | > 100 | 347 | 438 | 437 | 304 | 339 | 417 | 352 | 203 | 205 | 397
CCN(CC)c1ccc(CNc2cc(C)nc3ccc(OC)cc23)cc1 | 4.33 | 9.8 | 9.69 | 19.2 | 3.59 | 15.9 | 14.4 | 7.17 | 6.26 | 4.3 | 1970 | 2700 | 3160 | 4050 | 955 | 4050 | 3120 | 2630 | 2000 | 2040
CC[C@@]1(O)C(=O)OCc2c1cc1n(c2=O)Cc2cc3c([N+](=O)[O-])c(O)ccc3nc2-1 | 1.14 | 0.636 | 0.188 | 17.3 | > 100 | 12.7 | – | 0.611 | 6.56 | 1.22 | 53 | 82.1 | 22.7 | 1040 | 2640 | 249 | 1290 | 51 | 1260 | 40.5
CC/C=C\C[C@H](O)C/C=C1/C(=O)C=C[C@@H]1C/C=C\CCCC(=O)OCCS(=O)(=O)c1ccccc1 | 6.35 | 10.6 | 13.4 | 23.3 | 8.54 | 15.3 | 6.39 | 10.3 | 19.4 | 12.5 | 2530 | 2820 | 2830 | 6260 | 3290 | 4070 | 2690 | 3170 | 6870 | 3350
COc1cccc(-c2cc(C(=O)Nc3ccc(Cl)cc3)nc(N)n2)c1 | > 100 | > 100 | > 100 | > 100 | > 100 | > 100 | > 100 | > 100 | > 100 | > 100 | – | – | – | – | – | – | – | – | – | –
CC[C@]12C=CCN3CC[C@@]4(c5ccc(OC)cc5N(C)[C@H]4[C@@](O)(C(=O)OC)[C@@H]1OC(=O)CCCC[P+](c1ccccc1)(c1ccccc1)c1ccccc1)[C@@H]32 | 11.6 | 10.5 | 5.29 | 1.98 | 5.48 | 9.92 | 9.74 | 30.1 | 1.35 | 4.4 | 1700 | 1070 | 1360 | 486 | 441 | 2230 | 2120 | 14000 | 238 | 441
CCOc1cccc2sc(N)nc12 | > 100 | > 100 | > 100 | > 100 | > 100 | > 100 | > 100 | > 100 | > 100 | > 100 | – | – | – | – | – | – | – | – | – | –
Cc1cc(N(CCC#N)CCC#N)ccc1/C=C(\NC(=O)/C=C/c1ccccc1)NC(=O)Nc1ccccc1C | > 100 | > 100 | > 100 | > 100 | > 100 | > 100 | > 100 | > 100 | 62 | 42.7 | – | – | – | – | – | – | – | – | – | –
CCCCCCCCCCCCCCCCSS(C)(=O)=O | > 75.2 | > 75.8 | 6.77 | > 61.3 | > 69.6 | 58.7 | > 35.3 | 32.3 | 37.9 | > 100 | – | – | – | – | – | – | – | – | – | –
Cc1ccc(C(=O)Nc2ccc(CN3CCN(C)CC3)c(C(F)(F)F)c2)cc1C#Cc1cnc(N)c2ccc(C#N)cc12 | 16.6 | 18.2 | > 12 | 9.55 | – | > 11.7 | > 50 | 6.23 | 0.714 | 9.23 | 557 | 1100 | 105 | 18.8 | 211 | 541 | 471 | 18.2 | 13.4 | 393
CN(C)C(=O)C(NCCO)c1ccccc1 (stereo not drawn) | > 100 | > 100 | > 100 | > 100 | > 100 | > 100 | > 100 | > 100 | > 100 | > 100 | – | – | – | – | – | – | – | – | – | –
NC(N)=NS(=O)(=O)c1ccc(NC(=O)c2cccn3c(=O)c4ccccc4nc23)cc1 | > 100 | > 100 | 85.9 | > 100 | > 100 | > 100 | > 100 | > 100 | > 100 | > 100 | – | – | – | – | – | – | – | – | – | –
COc1ccc2c3c(ccc2c1)NC(C(=O)O)CC3 (stereo not drawn) | > 100 | > 100 | 56.9 | > 100 | > 100 | > 100 | > 100 | > 100 | > 100 | > 100 | – | – | – | – | – | – | – | – | – | –
Cc1cc(C)nc(NS(=O)(=O)c2ccc(Nc3nc4nc(NCc5ccccc5)nc(-c5ccc(O)cc5)c4c(=O)[nH]3)cc2)n1 | > 100 | > 100 | 12.8 | 7.52 | > 100 | > 100 | > 100 | > 100 | 61.3 | > 100 | 49900 | 79700 | 2380 | 663 | 57900 | 36500 | 55800 | 29600 | 14600 | 36700
CCCCCCCC(=O)SCC/C=C/[C@@H]1CC(=O)NCc2cccc(n2)C2=N[C@@](C)(CS2)C(=O)N[C@@H](C(C)C)C(=O)O1 | > 33.3 | > 33.3 | > 33.3 | 0.525 | > 33.3 | > 33.3 | > 9.23 | 0.693 | 0.52 | 0.782 | 16.7 | 85.8 | 70.2 | 26.3 | 25.6 | 25.3 | 210 | 89.7 | 84.1 | 80.2
C=C(c1ccc(OC)c(/C=C/C(=O)c2cc(OC)c(OC)c(OC)c2)c1)c1cc(OC)c(OC)c(OC)c1 | 3.54 | 4.9 | 27 | 5.88 | 3.15 | 11.9 | 3.29 | 2.58 | 6.9 | 2.12 | 1440 | 1950 | 1610 | 2070 | 628 | 716 | 1410 | 1260 | 1140 | 773
COc1ccc(-c2cnc(SCC(=O)c3c(C)n(C)n(-c4ccccc4)c3=O)n2-c2ccc(OC)cc2)cc1 | > 50 | > 50 | > 50 | > 50 | > 50 | > 50 | > 50 | > 50 | > 50 | > 50 | 43600 | > 50000 | 12600 | > 50000 | > 50000 | > 50000 | > 50000 | > 50000 | > 50000 | > 50000
Clc1cc2nc[nH]c2cc1Cl | > 100 | > 100 | > 100 | > 100 | > 100 | > 100 | > 100 | > 100 | > 100 | > 100 | – | – | – | – | – | – | – | – | – | –
